Reference: PMC3898838, “Design, Synthesis, and Biological Evaluation of an Allosteric Inhibitor of HSET that Targets Cancer Cells with Supernumerary Centrosomes” (Chemistry & Biology, 2013)

Legend:
Assay type in all cases: cell-based, human
[1] = system: NHDF cells; assay: Immunofluorescence, mitotic spindle morphology; conditions: 100 μM and 200 μM, 2.5 hr
Description: Using IF, we next examined the mitotic phenotypes induced by CW069 in N1E-115 and NHDF cells, with a strong focus on centrosome numbers and mitotic spindle morphology. Antibodies against α-tubulin, CDK5RAP2, and DAPI were employed to visualize MTs, centrosomes, and DNA, respectively. We hypothesized that small-molecule inhibition of HSET would give rise to mitotic spindle defects similar to those reported after HSET knockdown by siRNA transfection ([Kwon et al., 2008]), and this was indeed the case. […] After treatment, the N1E-115 cells formed multipolar spindles due to a lack of centrosome clustering, consistent with HSET inhibition in cells with supernumerary centrosomes (Figure 4C).
[…] Prewarmed 4% paraformaldehyde in PBS was then added to each well to fix the cells before washing with PBS. Permeabilization and blocking was performed by incubating the slides with 1% BSA, 0.3% Triton X-100, 5% goat serum in PBS (PBS/B/0.3%T+5%GS) for 1 hr while shaking them at room temperature (RT). The slides were incubated with primary antibody solutions (mouse monoclonal anti-α-Tubulin [catalog number T9026; Sigma-Aldrich] and rabbit anti-CDK5RAP2 [catalog number A300-554A; Bethyl Laboratories]) at 4°C for 16 hr. […]

[2] = system: MCF-7 cells; assay: Time-lapse microscopy, mitotic fate; conditions: MCF-7, 200 μM
Description: (§1) Cells were synchronized in G2-M by incubation at 37°C and 5% CO2 for 24 hr with 9 μM of the CDK1 inhibitor RO-3306 (Merck). Cells were released by removal of the RO-3306 and four washings of 10 min each, at 37°C, with prewarmed culture media + 10% FBS. N1E-115 cells were transfected with siRNA (Supplemental Experimental Procedures) and imaged from 6 hr after transfection. Some RO-3306-synchronized cells were released with 200 μM CW069, 100 μM monastrol, or 0.2% DMSO, and imaging started immediately or 1 hr after treatment. Imaging was carried out for 24 hr, or for 4 hr in the case of the CW069/monastrol cotreatment. Imaging was conducted every 5 min in a humidified chamber with 37°C and 5% CO2, using a Nikon Eclipse TE2000-E microscope, and analyzed with NIS-Elements software (Nikon, Tokyo, Japan). The morphology of cells in mitosis and the mitotic fate (bipolar division, multipolar division, or cell death) were analyzed.

[3] = system: NHDF cells; assay: Time-lapse microscopy, mitotic fate; conditions: 200 μM
Description: as §1

[4] = system: BT549 cells; assay: IncuCyte live-cell imaging, proliferation; conditions: BT549, 100-350 μM
Description: (§2) In order to ascertain whether CW069 could more broadly reduce proliferation in a range of cancer cells, we carried out IncuCyte live-cell imaging on N1E-115 cells and BT549 (with lower but marked centrosome amplification) and MCF-7 (with normal centrosome numbers) breast cancer cells. Cells were imaged for 21 hr prior to treatment with DMSO control (0.2%) and various concentrations of CW069, and then imaged for a further 36 hr. […] It could also be due to another direct or indirect effect, and the role of HSET in the survival of cancer cells with normal centrosome numbers remains to be fully understood.
(§3) NHDF cells were obtained from PromoCell, and the N1E-115 and HeLa cells were obtained from ATCC/LGC Standards. The BT549, MCF-7 and MDA-MB-231 cells were kind gifts from the Caldas laboratory (CRUK Cambridge Institute) and were originally obtained from ATCC/LGC. All human cells were verified by STR genotyping and all tested negative for mycoplasma. […] Fluorescence was quantified using an Infinite 200 PRO plate-reader (Tecan) at a wavelength of 545 nm. […]
(§4) For live-cell imaging, plated cells were imaged prior to treatment for 24 hr and then after treatment for 72 hr. […] Data were analyzed as the percentage of original cell confluency in order to directly compare each compound treatment with the DMSO control.

[5] = system: MCF-7 cells; assay: IncuCyte live-cell imaging, proliferation; conditions: MCF-7, 100-350 μM
Description: as §2, §3, §4

**Q.** For `O=C(O)c1cc(I)ccc1NC(=O)[C@H](Cc1ccccc1)NCc1ccccc1` [CW069], which mitotic spindle morphology [1] is on record?
**A.** Its mitotic spindle morphology is “unchanged compared with control”.

**Q.** And the bipolar division [2]?
**A.** Its bipolar division is “remained unaffected”.

**Q.** What about the multipolar anaphase formation [3] of the same molecule?
**A.** Its multipolar anaphase formation is “No similar increase in multipolar anaphase formation”.

**Q.** What about the cell proliferation [4] of the same molecule?
**A.** Its cell proliferation is “antiproliferative effect”.

**Q.** What about the cell proliferation [5] of the same molecule?
**A.** The cell proliferation was “does reduce their proliferation”.
